Results on 10 molecules are retold here after publication PMC8232621, “Antimicrobial Activity of a Library of Thioxanthones and Their Potential as Efflux Pump Inhibitors” (Pharmaceuticals, 2021).

SMILES strings stand for the structures. Like-named read-outs stand apart in the source and are kept apart here.

Series [1] is described as follows: Cytotoxicity in NIH/3T3 cell line (MTT assay). The format is cell-based. The settings on record: mouse, read-out: IC50 (µM) ± SD, cytotoxicity. The method, then:
Before each cytotoxicity assay using this cell line, cells were seeded in untreated 96-well flat-bottom microtiter plates, following a 4-hour incubation period in a humidified atmosphere (5% CO2, 95% air) at 37 °C [47]. […] Prior to the assay, the cells were seeded for 4 h using 1 × 10^4 cells/well. […] The plates were incubated for 24 h, after which a solution of MTT in PBS was added to each well and incubated for another 4 h. After this, 100 μL of SDS (10% in a 0.01 M HCl solution) was added to each well and incubated overnight at 37 °C. Doxorubicin was used as a positive control. Cell growth was determined in quadruplicate by measuring OD at λ = 540 nm (reference 630 nm) in a Multiscan EX ELISA reader (Thermo Labsystems, Cheshire, WA, USA). […] (2) 100−ODsample−ODmedium control/ODcell control−ODmedium control×100 […]

Series [2] has as its target T1, P-glycoprotein (P-gp) (Homo sapiens, UniProt P08183).
T1 construct: P-glycoprotein (P-gp) activity assessed by fluorescence spectroscopy in Caco-2 cells; endogenous in cells; host or cells: Caco-2 cells (ECACC)
Put plainly: P-gp transport activity, RHO 123 accumulation in Caco-2 cells in presence of compounds (90 min). The settings on record: 20 µM only during the 90 min incubation with RHO 123. The series is classed as cell-based. The method, then:
Concerning the second experimental approach used to evaluate the effects of the compounds in P-gp activity, Caco-2 cells were exposed to thioxanthone derivatives (20 µM) only during the 90 min of incubation with the fluorescent substrate (RHO 123, 10 µM). This experimental approach aims to evaluate the potential immediate effects of thioxanthone derivatives on P-gp activity as a result of a direct inhibition or activation of the protein, i.e., not to change the protein expression. […] In contrast, compounds 12 and 13 caused a significant and immediate decrease in P-gp activity (to 82 and 85%, respectively), when compared to control cells (0 µM).
The effect of the tested compounds on P-gp activity was evaluated using rhodamine 123 (RHO 123) as a P-gp fluorescent substrate, and ZOS as a specific third-generation P-gp inhibitor. Indeed, several studies report the use of RHO 123 accumulation/efflux assays for the direct assessment of P-gp activity through the quantification of the intracellular fluorescence of the P-gp substrate. Caco-2 cells were seeded in 24-well plates at a density of 60,000 cells/cm^2 and, three days after seeding, and submitted to two different protocols of RHO 123 accumulation: 1) RHO 123 accumulation in cells pre-exposed to the compounds (20 µM) for 24 h; 2) RHO 123 accumulation in the presence of the tested compounds (20 µM) for 90 min, as previously described.
On the other hand, in the second protocol, the cells were exposed to the tested compounds 30 min prior to addition of the P-gp fluorescent substrate, RHO 123, and remained in contact with the cells only during the substrate accumulation period, thus aiming to detect immediate effects of the tested compounds on P-gp activity as a result of a direct P-gp activation or inhibition. For that purpose, three days after seeding, the cell culture medium was removed, and the cells submitted to the following procedures:
RHO 123 accumulation under normal conditions (NA): pre-exposure to compounds (20 μM), prepared in HBSS (+/+), for 30 min at 37 °C, followed by incubation with RHO 123 (5 μM) for 90 min, at 37 °C, in a humidified 5% CO2 and 95% O2 air atmosphere. Control cells were only exposed to RHO 123.
RHO 123 accumulation in the presence of the P-gp inhibitor (IA): simultaneous pre-exposure to compounds (20 μM) and ZOS (5 μM), both prepared in HBSS (+/+), for 30 min at 37 °C, followed by incubation with RHO 123 (5 μM) for 90 min, at 37 °C, in a humidified 5% CO2 and 95% O2 air atmosphere. Control cells were only exposed to ZOS and RHO 123.
After the 90 min of incubation with RHO 123, the cells were washed twice with HBSS (-/-) and lysed with 1% Triton™ X100, for 30 min, in the dark, at room temperature. RHO 123 intracellular fluorescence was then measured at excitation/emission wavelengths of 485/528 nm, in a multi-well plate reader (PowerWave-X, BioTek Instruments, VT, USA) and expressed as fluorescence intensity (FI). The ratio between the FI after inhibited RHO 123 accumulation (IA) and the FI of non-inhibited RHO 123 accumulation (NA) was the parameter used for comparison, and the results were expressed as a percentage of control cells (Equation (3)). Given the high autofluorescence of several of the tested compounds at the conditions used to measure RHO 123 fluorescence, only compounds 9, 10, 12, 13, and 14 were able to be tested for their potential immediate effect on P-gp activity. Four independent experiments were performed, in triplicate.
For orientation: Caco-2 monolayers are a common model of the intestinal barrier.

Series [3] has as its system Caco-2 cells. Put plainly: Cytotoxicity in Caco-2 cells, neutral red (NR) uptake assay. The format is cell-based, human. The settings on record: 24 h after exposure. On the procedure: Caco-2 cells were routinely cultured in 75 cm^2 flasks using DMEM with 4.5 g/L glucose supplemented with 10% FBS, 1% NEAA and 1% antibiotic. Cells were maintained at 37 °C, in a 5% CO2 and 95% air atmosphere, and the cell culture medium was changed every 2−3 days. Cultures were passaged weekly by trypsinization (0.25% trypsin/1 mM EDTA). In all experiments, the cells were seeded at a density of 60,000 cells/cm^2 and used three days after seeding, when confluence was reached. The cells used in all experiments were taken between the 55th and 64th passages.
The compounds’ (0−20 μM) cytotoxicity was evaluated by the neutral red (NR) uptake and Sulforhodamine B (SRB) binding assays, 24 h after exposure. Caco-2 cells were seeded onto 96-well plates at a density of 60,000 cells/cm^2 and exposed, after reaching confluence (three days after seeding), to the compounds (0–20 μM), in a fresh cell culture medium. Triton™ X-100 (0.1%) was used as a positive control.
The NR assay is based on the ability of viable cells to incorporate and bind the supravital dye NR into the lysosomes, thus providing a quantitative estimation of the number of viable cells in a culture. Twenty-four hours after exposure to the compounds, the cell culture medium was removed, followed by the addition of fresh cell culture medium containing 50 μg/mL NR, and incubation at 37 °C in a humidified 5% CO2 and 95% air atmosphere, for 90 min. After this incubation period, the cell culture medium was removed, the dye absorbed only by viable cells extracted with absolute ethyl alcohol/distilled water (1:1) with 5% acetic acid, and the absorbance measured at 540 nm in a multiwell plate reader (PowerWaveX BioTek Instruments, VT, USA). The percentage of NR uptake relatively to that of the control cells (0 µM) was used as the cytotoxicity measure. Five independent experiments were performed, in triplicate.

T1 sequence (P08183 whole entry): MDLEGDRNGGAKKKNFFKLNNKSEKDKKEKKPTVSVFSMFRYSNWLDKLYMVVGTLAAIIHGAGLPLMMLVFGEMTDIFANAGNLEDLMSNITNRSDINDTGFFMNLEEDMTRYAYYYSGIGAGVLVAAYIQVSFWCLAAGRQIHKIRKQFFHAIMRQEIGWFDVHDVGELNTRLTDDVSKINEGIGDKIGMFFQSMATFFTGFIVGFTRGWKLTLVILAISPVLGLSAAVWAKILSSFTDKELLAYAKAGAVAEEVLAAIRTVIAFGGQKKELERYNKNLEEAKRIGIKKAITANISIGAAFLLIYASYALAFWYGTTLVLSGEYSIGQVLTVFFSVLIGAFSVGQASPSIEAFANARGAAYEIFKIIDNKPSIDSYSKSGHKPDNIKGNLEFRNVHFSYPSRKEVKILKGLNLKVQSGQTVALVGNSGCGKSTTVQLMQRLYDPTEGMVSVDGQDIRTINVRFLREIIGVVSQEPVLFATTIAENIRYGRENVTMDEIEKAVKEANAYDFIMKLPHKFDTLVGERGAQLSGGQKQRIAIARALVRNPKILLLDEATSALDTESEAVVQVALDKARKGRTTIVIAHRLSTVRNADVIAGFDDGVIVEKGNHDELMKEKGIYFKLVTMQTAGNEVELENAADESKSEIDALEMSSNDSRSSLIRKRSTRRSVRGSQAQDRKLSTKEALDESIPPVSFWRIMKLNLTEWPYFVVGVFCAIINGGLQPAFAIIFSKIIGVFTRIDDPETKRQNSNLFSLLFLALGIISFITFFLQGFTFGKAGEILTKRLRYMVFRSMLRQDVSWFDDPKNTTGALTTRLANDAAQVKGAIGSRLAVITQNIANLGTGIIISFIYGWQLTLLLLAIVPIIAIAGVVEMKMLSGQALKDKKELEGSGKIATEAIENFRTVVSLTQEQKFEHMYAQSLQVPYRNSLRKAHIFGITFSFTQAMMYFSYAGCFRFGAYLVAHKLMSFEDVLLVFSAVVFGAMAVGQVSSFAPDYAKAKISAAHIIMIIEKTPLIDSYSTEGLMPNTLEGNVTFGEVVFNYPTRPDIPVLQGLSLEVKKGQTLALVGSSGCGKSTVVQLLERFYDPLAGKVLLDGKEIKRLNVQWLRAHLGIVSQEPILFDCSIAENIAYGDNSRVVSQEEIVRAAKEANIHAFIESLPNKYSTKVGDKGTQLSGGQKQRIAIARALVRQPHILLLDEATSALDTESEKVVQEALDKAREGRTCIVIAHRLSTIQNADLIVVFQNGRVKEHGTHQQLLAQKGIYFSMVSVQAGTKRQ

In general, IC50 refers to the concentration needed to halve the response being measured. As to `CCCOc1ccc(N2CCCCC2)c2c(=O)c3ccccc3sc12` [Compound 3], the IC50 at 24 h in series [1] was over 100 µM.

Turning to `CCCOc1ccc(Nc2nc(C)cc(C)n2)c2c(=O)c3ccccc3sc12` [Compound 8, 1-[(4,6-Dimethylpyrimidin-2-yl)amino]-4-propoxy-9H-thioxanthen-9-one], the IC50 at 24 h in series [1] (NIH/3T3 mouse fibroblast cells) is over 100 µM.

Regarding `CCCOc1ccc(N2CCNC(=O)C2)c2c(=O)c3ccccc3sc12` [Compound 9, 4-(9-Oxo-4-propoxy-9H-thioxanthen-1-yl)piperazin-2-one], the “P-gp activity (control cells 100%)” value in series [2] is listed as “no significant differences”.

On to `CCCOc1ccc(NCCO)c2c(=O)c3ccccc3sc12` [Compound 10, 1-[(2-Hydroxyethyl)amino]-4-propoxy-9H-thioxanthen-9-one], for which the “P-gp activity (control cells 100%)” value in series [2] was “no significant differences”.

For `CCCOc1ccc(NS(=O)(=O)c2ccc(C(=O)O)cc2)c2c(=O)c3ccccc3sc12` [Compound 12, 4-[N-(9-Oxo-4-propoxy-9H-thioxanthen-1-yl)sulfamoyl]benzoic acid], the “P-gp activity (control cells 100%)” value in series [2] is given as 82%. Moreover, the IC50 at 24 h in series [1] (NIH/3T3 mouse fibroblast cells) was determined as 64.5 ± 4.54 µM.

Consider `CCCOc1ccc(NS(=O)(=O)c2ccc(N)cc2)c2c(=O)c3ccccc3sc12` [Compound 13, 4-Amino-N-(9-oxo-4-propoxy-9H-thioxanthen-1-yl)benzenesulfonamide], for which the “NR uptake (relative to control cells)” value in series [3] (10 µM) is on record as 95.5%; in series [3] (20 µM), “no significant effect”. The “P-gp activity (control cells 100%)” value in series [2] is on record as 85%. Moreover, the IC50 at 24 h in series [1] (NIH/3T3 mouse fibroblast cells) was over 100 µM.

In the case of `CCCOc1ccc(Br)c2c(=O)c3ccccc3sc12` [Compound 14, 1-Bromo-4-propoxy-9H-thioxanthen-9-one], the “P-gp activity (control cells 100%)” value in series [2] was 116%.

Consider `CCCOc1ccc2ncnc3c2c1Sc1ccccc1-3` [Compound 15], for which the “NR uptake (relative to control cells)” value in series [3] (20 µM) was 92.2%.

As to `CCCOc1ccc2nc(N)nc3c2c1Sc1ccccc1-3` [Compound 16], in series [3] (20 µM), the “NR uptake (relative to control cells)” value was found to be 94.1%.

For the molecule `CCCOc1ccc2nc(NCc3ccccc3Cl)nc3c2c1Sc1ccccc1-3` [Compound 17], in series [3] (20 µM), the “NR uptake (relative to control cells)” value was 95.5%. The IC50 at 24 h in series [1] (NIH/3T3 mouse fibroblast cells) was over 100 µM.
